According to ChEMBL document CHEMBL1159093, “Discovery and optimization of RO-85, a novel drug-like, potent, and selective P2X3 receptor antagonist” (Bioorg Med Chem Lett, 2010):

Tests used:
[1] = molecular target: Neuropeptide Y receptor type 1 (Homo sapiens) (UniProt P25929); experiment: Displacement of [125I]peptideYY from neuropeptide Y1 receptor in human SK-N-MC cells at 10 uM after 120 mins by scintillation counting; assay type: cell-based
[2] = molecular target: Prostacyclin receptor (Homo sapiens) (UniProt P43119); experiment: Displacement of [3H]iloprost from human recombinant IP receptor expressed in HEK293 cells at 10 uM after 60 mins by scintillation counting; assay type: cell-based
[3] = Inhibition of Cytochrome P450 at <15 uM; assay type: ADME
[4] = molecular target: Muscarinic acetylcholine receptor M4 (Homo sapiens) (UniProt P08173); experiment: Displacement of [3H]4-DAMP from human recombinant muscarinic M4 receptor expressed in CHO cells at 10 uM after 60 mins by scintillation counting; assay type: cell-based
[5] = molecular target: Platelet-derived growth factor receptor (Mus musculus) (UniProt P05622+P26618); experiment: Displacement of [125I]PDGF BB from PDGFR in BALB/c mouse 3T3 cells at 10 uM after 180 mins by scintillation counting; assay type: cell-based
[6] = molecular target: Vasopressin V1a receptor (Homo sapiens) (UniProt P37288); experiment: Displacement of [3H]AVP from human recombinant vasopressin V1a receptor expressed in CHO cells at 10 uM after 60 mins by scintillation counting; assay type: cell-based
P2X purinoceptor 6 = P2X purinoceptor 6 (Homo sapiens, UniProt O15547); experiment: Antagonist activity at P2X6 receptor; assay type: functional
[7] = molecular target: B2 bradykinin receptor (Homo sapiens) (UniProt P30411); experiment: Displacement of [3H]bradykinin from human recombinant bradykinin B2 receptor expressed in CHO cells at 10 uM after 60 mins by scintillation counting; assay type: cell-based
[8] = molecular target: Endothelin-1 receptor (Homo sapiens) (UniProt P25101); experiment: Displacement of [125I]endothelin-1 from human recombinant ETA receptor expressed in CHO cells at 10 uM after 120 mins by scintillation counting; assay type: cell-based
[9] = molecular target: Adenosine receptor A1 (Homo sapiens) (UniProt P30542); experiment: Displacement of [3H]DPCPX from human recombinant A1 receptor expressed in CHO cells at 10 uM after 60 mins by scintillation counting; assay type: cell-based
Hepatocyte = experiment: Metabolic stability in rat hepatocytes; assay type: ADME, cell-based
[10] = molecular target: Substance-P receptor (Homo sapiens) (UniProt P25103); experiment: Displacement of [125I]BH-SP from NK1 receptor in human U-373MG cells at 10 uM after 60 mins by scintillation counting; assay type: cell-based; settings: U-373MG ATCC
Rattus norvegicus [11] = species on record: Rattus norvegicus; experiment: Displacement of [3H]TCP from PCP receptor in rat cerebral cortex at 10 uM after 120 mins by scintillation counting; assay type: tissue-based
[12] = molecular target: Sodium-dependent noradrenaline transporter (Homo sapiens) (UniProt P23975); experiment: Displacement of [3H]nisoxetine from human recombinant NET expressed in CHO cells at 10 uM after 120 mins by scintillation counting; assay type: cell-based
Rattus norvegicus [13] = species on record: Rattus norvegicus; experiment: Displacement of [3H]DTG from sigma opioid receptor in rat cerebral cortex at 10 uM after 120 mins by scintillation counting; assay type: tissue-based
[14] = molecular target: Galanin receptor type 2 (Homo sapiens) (UniProt O43603); experiment: Displacement of [125I]galanin from human recombinant GAL2 receptor expressed in HEK293 cells at 10 uM after 120 mins by scintillation counting; assay type: cell-based
[15] = molecular target: 5-hydroxytryptamine receptor 1A (Homo sapiens) (UniProt P08908); experiment: Displacement of [3H]8-OH-DPAT from human recombinant 5HT1A receptor expressed in HEK293 cells at 10 uM after 60 mins by scintillation counting; assay type: cell-based
[16] = molecular target: Melanocortin receptor 4 (Homo sapiens) (UniProt P32245); experiment: Displacement of [125I]NDP-a-MSH from human recombinant MC4 receptor expressed in CHO cells at 10 uM after 120 mins by scintillation counting; assay type: cell-based
[17] = molecular target: Peroxisome proliferator-activated receptor gamma (Homo sapiens) (UniProt P37231); experiment: Displacement of [3H]rosiglitazone from human recombinant PPARgamma receptor expressed in Escherichia coli at 10 uM after 120 mins by scintillation counting
[18] = molecular target: Nociceptin receptor (Homo sapiens) (UniProt P41146); experiment: Displacement of [3H]nociceptin from human recombinant NOP receptor expressed in HEK293 cells at 10 uM after 60 mins by scintillation counting; assay type: cell-based
[19] = molecular target: 5-hydroxytryptamine receptor 1B (Rattus norvegicus) (UniProt P28564); experiment: Displacement of [125I]CYP from 5HT1B receptor in rat cerebral cortex at 10 uM after 120 mins by scintillation counting in presence of 30 uM isoproterenol; assay type: tissue-based
[20] = molecular target: Adenosine receptor A3 (Homo sapiens) (UniProt P0DMS8); experiment: Displacement of [125I]AB-MECA from human recombinant A3 receptor expressed in HEK293 cells at 10 uM after 120 mins by scintillation counting; assay type: cell-based
[21] = molecular target: D(1A) dopamine receptor (Homo sapiens) (UniProt P21728); experiment: Displacement of [3H]SCH 23390 from human recombinant dopamine D1 receptor expressed in CHO cells at 10 uM after 60 mins by scintillation counting; assay type: cell-based
[22] = molecular target: Kappa-type opioid receptor (Rattus norvegicus) (UniProt P34975); experiment: Displacement of [3H]U 69593 from rat recombinant kappa opioid receptor expressed in CHO cells at 10 uM after 60 mins by scintillation counting; assay type: cell-based
Rattus norvegicus [23] = species on record: Rattus norvegicus; experiment: Displacement of [3H]batrachotoxinin from sodium channel site2 in rat cerebral cortex at 10 uM after 60 mins by scintillation counting; assay type: tissue-based
P2X purinoceptor 3 = molecular target: T1, P2X purinoceptor 3 (Rattus norvegicus, UniProt P49654); experiment: Antagonist activity at rat P2X3 receptor expressed in CHO cells; assay type: functional, cell-based
T1 sequence (P49654 whole entry): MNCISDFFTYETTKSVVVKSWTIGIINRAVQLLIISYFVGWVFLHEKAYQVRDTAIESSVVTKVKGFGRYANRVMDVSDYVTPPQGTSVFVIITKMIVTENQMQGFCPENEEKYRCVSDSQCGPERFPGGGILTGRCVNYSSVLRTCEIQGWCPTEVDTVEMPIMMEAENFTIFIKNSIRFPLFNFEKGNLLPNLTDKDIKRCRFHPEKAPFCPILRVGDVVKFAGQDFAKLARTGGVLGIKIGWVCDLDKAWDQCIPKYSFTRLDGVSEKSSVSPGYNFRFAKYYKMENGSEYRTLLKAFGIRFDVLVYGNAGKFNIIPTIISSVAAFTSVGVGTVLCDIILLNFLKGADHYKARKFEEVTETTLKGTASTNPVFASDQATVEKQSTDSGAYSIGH

Sequence of P2X purinoceptor 6 (O15547 whole entry): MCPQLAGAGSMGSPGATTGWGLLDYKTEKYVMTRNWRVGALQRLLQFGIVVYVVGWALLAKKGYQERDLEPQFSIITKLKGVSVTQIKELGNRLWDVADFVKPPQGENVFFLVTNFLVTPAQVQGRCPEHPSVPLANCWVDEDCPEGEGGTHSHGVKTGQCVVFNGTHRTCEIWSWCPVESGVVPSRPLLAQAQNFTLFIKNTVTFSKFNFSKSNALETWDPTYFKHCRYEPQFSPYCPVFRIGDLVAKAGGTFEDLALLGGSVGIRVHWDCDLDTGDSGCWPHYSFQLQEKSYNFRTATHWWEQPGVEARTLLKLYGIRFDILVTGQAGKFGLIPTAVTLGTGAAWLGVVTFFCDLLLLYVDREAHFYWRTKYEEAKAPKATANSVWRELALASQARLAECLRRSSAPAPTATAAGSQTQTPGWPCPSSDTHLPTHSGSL
Sequence of D(1A) dopamine receptor (Homo sapiens) (P21728 whole entry): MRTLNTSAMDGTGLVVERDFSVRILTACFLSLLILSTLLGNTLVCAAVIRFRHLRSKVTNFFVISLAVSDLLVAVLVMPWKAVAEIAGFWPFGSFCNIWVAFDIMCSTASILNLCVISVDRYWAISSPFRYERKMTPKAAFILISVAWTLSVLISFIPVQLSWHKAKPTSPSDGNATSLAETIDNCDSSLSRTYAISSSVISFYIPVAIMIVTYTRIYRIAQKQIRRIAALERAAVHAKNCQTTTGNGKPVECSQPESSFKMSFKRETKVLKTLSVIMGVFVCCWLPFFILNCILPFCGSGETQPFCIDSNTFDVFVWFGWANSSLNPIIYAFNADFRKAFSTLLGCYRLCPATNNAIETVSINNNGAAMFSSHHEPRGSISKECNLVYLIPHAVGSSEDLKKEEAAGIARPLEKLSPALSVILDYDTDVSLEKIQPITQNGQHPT
Sequence of Adenosine receptor A3 (Homo sapiens) (P0DMS8 whole entry): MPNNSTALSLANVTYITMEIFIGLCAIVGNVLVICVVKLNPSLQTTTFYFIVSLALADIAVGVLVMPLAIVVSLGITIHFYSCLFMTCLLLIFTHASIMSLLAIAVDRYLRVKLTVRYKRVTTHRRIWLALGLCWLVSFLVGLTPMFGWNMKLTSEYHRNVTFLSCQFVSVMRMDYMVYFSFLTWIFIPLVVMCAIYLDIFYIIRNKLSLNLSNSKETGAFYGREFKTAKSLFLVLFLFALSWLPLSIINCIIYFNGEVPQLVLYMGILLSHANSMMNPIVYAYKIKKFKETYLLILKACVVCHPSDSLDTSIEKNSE
Sequence of Nociceptin receptor (Homo sapiens) (P41146 whole entry): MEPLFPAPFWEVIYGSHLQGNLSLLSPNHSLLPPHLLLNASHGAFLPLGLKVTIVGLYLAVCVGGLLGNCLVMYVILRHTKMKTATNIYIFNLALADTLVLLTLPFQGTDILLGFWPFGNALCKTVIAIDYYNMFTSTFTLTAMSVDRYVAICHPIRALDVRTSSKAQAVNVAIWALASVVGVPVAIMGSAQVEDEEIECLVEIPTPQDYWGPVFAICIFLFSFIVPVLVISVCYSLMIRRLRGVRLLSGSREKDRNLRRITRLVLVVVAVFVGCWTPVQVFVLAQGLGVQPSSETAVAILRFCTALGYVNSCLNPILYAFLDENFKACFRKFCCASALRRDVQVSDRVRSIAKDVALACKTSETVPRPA
Sequence of Sodium-dependent noradrenaline transporter (Homo sapiens) (P23975 whole entry): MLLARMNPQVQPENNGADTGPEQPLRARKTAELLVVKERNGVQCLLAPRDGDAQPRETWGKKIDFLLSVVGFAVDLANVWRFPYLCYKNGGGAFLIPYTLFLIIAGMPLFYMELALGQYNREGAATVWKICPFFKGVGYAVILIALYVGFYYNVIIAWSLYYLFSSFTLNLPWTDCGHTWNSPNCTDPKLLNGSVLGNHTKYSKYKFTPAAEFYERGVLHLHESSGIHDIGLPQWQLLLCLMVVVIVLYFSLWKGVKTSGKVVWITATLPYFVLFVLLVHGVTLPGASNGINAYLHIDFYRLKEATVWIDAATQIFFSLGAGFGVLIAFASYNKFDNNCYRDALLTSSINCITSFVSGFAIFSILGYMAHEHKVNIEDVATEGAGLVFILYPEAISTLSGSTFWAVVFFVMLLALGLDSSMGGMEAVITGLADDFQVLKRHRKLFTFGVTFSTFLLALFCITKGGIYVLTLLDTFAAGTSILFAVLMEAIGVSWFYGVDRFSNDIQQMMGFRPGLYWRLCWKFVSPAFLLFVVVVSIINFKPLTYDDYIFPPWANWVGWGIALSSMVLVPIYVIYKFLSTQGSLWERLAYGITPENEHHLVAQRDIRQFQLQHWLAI
Sequence of Muscarinic acetylcholine receptor M4 (Homo sapiens) (P08173 whole entry): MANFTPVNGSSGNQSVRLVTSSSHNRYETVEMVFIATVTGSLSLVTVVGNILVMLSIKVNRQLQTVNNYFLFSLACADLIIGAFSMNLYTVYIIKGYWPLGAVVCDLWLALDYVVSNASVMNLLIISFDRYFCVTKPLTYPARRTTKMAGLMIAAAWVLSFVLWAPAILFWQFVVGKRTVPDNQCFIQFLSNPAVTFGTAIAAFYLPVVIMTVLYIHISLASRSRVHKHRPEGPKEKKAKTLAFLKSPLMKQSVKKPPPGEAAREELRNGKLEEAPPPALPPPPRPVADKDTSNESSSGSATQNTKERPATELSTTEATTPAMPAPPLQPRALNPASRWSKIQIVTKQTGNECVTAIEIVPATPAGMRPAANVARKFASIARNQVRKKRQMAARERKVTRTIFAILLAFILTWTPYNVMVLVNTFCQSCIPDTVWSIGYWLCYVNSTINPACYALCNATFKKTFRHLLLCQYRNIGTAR
Sequence of Neuropeptide Y receptor type 1 (Homo sapiens) (P25929 whole entry): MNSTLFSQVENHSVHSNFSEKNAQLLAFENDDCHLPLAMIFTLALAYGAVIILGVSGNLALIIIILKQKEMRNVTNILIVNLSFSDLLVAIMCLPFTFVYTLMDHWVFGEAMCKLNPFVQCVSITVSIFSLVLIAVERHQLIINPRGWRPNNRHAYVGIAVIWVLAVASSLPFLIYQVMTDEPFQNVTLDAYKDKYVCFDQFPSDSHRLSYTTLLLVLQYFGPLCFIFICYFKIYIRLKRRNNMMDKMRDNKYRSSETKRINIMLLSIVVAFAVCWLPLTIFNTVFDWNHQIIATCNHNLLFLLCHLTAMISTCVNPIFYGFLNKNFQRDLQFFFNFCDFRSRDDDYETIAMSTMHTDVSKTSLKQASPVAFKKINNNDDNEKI
Sequence of Kappa-type opioid receptor (Rattus norvegicus) (P34975 whole entry): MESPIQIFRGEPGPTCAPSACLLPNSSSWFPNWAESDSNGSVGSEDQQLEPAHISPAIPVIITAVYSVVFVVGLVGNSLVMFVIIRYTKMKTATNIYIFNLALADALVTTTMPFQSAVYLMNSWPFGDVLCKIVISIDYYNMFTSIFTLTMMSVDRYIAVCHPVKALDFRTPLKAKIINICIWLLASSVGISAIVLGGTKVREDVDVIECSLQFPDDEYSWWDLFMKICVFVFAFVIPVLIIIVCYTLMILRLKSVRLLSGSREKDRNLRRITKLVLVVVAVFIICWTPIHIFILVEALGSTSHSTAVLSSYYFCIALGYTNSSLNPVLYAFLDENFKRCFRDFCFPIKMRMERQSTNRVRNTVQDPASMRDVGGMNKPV
Sequence of 5-hydroxytryptamine receptor 1A (Homo sapiens) (P08908 whole entry): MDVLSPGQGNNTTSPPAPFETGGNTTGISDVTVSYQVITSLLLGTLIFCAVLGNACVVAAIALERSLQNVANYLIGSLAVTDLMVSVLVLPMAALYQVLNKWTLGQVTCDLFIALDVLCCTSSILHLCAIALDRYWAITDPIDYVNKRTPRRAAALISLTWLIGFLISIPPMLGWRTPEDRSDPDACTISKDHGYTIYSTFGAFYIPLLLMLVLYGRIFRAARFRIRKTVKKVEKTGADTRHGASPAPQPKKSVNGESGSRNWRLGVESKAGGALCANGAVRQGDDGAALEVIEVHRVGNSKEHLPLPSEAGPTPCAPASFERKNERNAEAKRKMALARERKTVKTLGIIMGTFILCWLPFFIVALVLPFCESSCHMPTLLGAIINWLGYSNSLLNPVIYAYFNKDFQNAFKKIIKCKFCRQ
Sequence of Vasopressin V1a receptor (Homo sapiens) (P37288 whole entry, looked up): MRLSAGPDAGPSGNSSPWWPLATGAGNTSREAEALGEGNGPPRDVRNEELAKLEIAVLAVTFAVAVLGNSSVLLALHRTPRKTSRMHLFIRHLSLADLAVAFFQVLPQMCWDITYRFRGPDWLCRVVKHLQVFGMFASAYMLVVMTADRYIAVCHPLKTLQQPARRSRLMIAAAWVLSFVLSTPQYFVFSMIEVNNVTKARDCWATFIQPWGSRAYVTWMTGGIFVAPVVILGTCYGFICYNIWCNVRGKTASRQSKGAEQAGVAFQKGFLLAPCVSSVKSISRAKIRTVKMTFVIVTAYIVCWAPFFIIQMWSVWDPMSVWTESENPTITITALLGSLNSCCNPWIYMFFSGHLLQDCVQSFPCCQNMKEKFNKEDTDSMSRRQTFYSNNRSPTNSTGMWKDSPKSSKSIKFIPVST
Sequence of Adenosine receptor A1 (Homo sapiens) (P30542 whole entry): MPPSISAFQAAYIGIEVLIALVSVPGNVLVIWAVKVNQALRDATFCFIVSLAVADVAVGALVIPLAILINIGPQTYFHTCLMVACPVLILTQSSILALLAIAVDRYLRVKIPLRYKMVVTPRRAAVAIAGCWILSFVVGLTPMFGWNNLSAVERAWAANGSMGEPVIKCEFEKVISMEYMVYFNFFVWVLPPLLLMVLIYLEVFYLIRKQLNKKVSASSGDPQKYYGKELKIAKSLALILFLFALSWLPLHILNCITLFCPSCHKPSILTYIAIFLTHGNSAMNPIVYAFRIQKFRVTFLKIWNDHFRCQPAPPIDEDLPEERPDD
Sequence of Melanocortin receptor 4 (Homo sapiens) (P32245 whole entry): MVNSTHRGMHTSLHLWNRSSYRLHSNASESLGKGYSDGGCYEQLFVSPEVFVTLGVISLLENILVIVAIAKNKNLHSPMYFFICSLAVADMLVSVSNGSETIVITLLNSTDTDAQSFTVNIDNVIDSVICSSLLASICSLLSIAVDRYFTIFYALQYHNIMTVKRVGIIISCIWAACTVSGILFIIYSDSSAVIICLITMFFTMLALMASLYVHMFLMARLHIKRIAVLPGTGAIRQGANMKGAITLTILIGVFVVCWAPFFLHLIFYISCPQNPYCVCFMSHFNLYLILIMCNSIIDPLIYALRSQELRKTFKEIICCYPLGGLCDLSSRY

CC(=O)N1CCN(C[C@@H](C)NC(=O)c2cc3c(-c4ccccc4)nn(C)c3s2)CC1
Activity [1]: > 50% | Activity [2]: > 50% | Activity [3]: Not Active | Activity [4]: > 50% | Activity [5]: > 50% | Activity [6]: > 50% | IC50 (P2X purinoceptor 6): > 10 µM | Activity [7]: > 50% | Activity [8]: > 50% | Activity [9]: > 50% | Stability (Hepatocyte): 3.93 µL/min/mg | Activity [10]: > 50% | Activity (Rattus norvegicus [11]): > 50% | Activity [12]: > 50% | Activity (Rattus norvegicus [13]): > 50% | Activity [14]: > 50% | Activity [15]: > 50% | Activity [16]: > 50% | Activity [17]: > 50% | Activity [18]: > 50% | Activity [19]: > 50% | Activity [20]: > 50% | Activity [21]: > 50% | Activity [22]: > 50% | Activity (Rattus norvegicus [23]): > 50% | IC50 (P2X purinoceptor 3): 0.0316 µM
